Source: patent US11059789B2, “Isoquinoline-steroid conjugates and uses thereof” (priority 2018, dated 2021)
Structures can show the parent of a compound that is named as a salt.

What was measured:
HTM = HTM assay; format: cell-based; settings: HCl salt
Procedure: (§1) Inhibition of various kinases was assayed.

PKCd = PKCd (Homo sapiens (Human), UniProt Q05655); experiment: Kinase assay PKCd; format: biochemical; settings: HCl salt
Procedure: as §1

[1] = tested on: Myeloperoxidase (MPO) activity; experiment: Myeloperoxidase (MPO) activity after intravitreal LPS in mice; format: in vivo, C57Bl6 male mice; settings: dosed at 0 and 6 hours
Procedure: Adult C57Bl6 male mice were injected with 2 ng of lipopolysaccharide (LPS) intravitreally. The mice were then dosed with vehicle, compounds or control treatments (0.07% w/w, 0.02% w/w or 0.007% w/w) at times 0 and 6 hours post-injection. Aqueous humor (AH) and vitreous humor (VH) was collected 24 hours after injection of LPS and assayed for MPO activity by ELISA. Data is a compilation of two separate experiments. Statistical analysis was carried out on GraphPad prism using a multiple comparisons 1-way ANOVA with uncorrected Dunn's test. Results are shown in FIG. 5 (aqueous humor) and FIG. 6 (vitreous humor). In FIG. 5 and FIG. 6, Dex refers to dexamethasone, Compound A refers to (S)-3-amino-2-(4-(hydroxymethyl)phenyl)-N-(isoquinolin-6-yl)propanamide, * refers to p<0.05, and ** refers to p<0.005. MPO levels correspond to levels of neutrophil infiltration. In the context of non-infectious inflammatory events, neutrophils cause robust levels of damage to tissues.

PTM = PTM assay; format: cell-based; settings: HCl salt
Procedure: as §1

IKKb = IKKb (Homo sapiens (Human), UniProt O14920); experiment: Kinase assay IKKb; format: biochemical; settings: HCl salt
Sequence of IKKb (O14920 whole entry, species assumed): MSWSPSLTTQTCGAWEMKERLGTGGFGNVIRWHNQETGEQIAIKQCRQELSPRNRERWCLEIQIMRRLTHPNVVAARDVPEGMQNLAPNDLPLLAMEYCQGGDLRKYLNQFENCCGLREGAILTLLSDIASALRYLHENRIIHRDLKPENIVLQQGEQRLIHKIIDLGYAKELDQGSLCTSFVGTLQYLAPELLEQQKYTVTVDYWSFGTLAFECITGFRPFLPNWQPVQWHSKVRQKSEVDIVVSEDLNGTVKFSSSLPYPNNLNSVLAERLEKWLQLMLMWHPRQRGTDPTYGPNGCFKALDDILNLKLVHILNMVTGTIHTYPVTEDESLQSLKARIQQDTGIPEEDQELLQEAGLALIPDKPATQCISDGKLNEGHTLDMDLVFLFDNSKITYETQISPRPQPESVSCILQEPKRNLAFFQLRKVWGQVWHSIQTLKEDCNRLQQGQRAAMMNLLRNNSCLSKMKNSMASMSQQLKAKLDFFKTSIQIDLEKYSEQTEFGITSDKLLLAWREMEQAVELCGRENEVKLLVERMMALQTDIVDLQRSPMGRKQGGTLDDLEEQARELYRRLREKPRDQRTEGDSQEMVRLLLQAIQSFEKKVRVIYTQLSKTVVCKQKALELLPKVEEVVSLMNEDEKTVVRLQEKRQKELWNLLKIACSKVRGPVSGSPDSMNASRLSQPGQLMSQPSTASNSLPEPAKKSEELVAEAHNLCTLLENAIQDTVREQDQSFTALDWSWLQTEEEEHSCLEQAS
Procedure: as §1

JAK3 = JAK3 (Homo sapiens (Human), UniProt P52333); experiment: Kinase assay JAK3; format: biochemical; settings: HCl salt
Procedure: as §1

TYK2 = TYK2 (Homo sapiens (Human), UniProt P29597); experiment: Kinase assay TYK2; format: biochemical; settings: HCl salt
Procedure: as §1

JAK1 = JAK1 (Homo sapiens (Human), UniProt P23458); experiment: Kinase assay JAK1; format: biochemical; settings: HCl salt
Procedure: as §1

PKCe = PKCe (Homo sapiens (Human), UniProt Q02156); experiment: Kinase assay PKCe; format: biochemical; settings: HCl salt
Procedure: as §1

AKT1 = AKT1 (Homo sapiens (Human), UniProt P31749); experiment: Kinase assay AKT1; format: biochemical; settings: HCl salt
Sequence of AKT1 (P31749 whole entry, species assumed): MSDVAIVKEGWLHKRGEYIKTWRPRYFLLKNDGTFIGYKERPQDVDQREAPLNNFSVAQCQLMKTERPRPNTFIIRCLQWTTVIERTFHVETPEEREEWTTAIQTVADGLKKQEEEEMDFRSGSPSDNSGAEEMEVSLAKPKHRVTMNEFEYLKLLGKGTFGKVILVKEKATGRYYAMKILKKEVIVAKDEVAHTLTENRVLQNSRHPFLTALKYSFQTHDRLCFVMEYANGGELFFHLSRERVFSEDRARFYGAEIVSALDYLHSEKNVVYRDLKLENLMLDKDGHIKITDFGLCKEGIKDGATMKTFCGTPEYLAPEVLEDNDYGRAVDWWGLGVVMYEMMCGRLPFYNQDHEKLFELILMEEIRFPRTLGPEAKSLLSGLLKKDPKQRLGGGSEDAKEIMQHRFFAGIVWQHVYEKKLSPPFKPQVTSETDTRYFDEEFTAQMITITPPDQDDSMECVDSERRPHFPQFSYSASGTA
Procedure: as §1

PKA = PKA (Homo sapiens, UniProt P17612); experiment: Kinase assay PKA; format: biochemical; settings: HCl salt
Procedure: as §1

NFkB = NFkB assay; format: cell-based; settings: HCl salt
Procedure: as §1

ROCK2 = ROCK2 (Homo sapiens (Human), UniProt O75116); experiment: Kinase assay ROCK2; format: biochemical; settings: HCl salt
Sequence of ROCK2 (O75116 whole entry, species assumed): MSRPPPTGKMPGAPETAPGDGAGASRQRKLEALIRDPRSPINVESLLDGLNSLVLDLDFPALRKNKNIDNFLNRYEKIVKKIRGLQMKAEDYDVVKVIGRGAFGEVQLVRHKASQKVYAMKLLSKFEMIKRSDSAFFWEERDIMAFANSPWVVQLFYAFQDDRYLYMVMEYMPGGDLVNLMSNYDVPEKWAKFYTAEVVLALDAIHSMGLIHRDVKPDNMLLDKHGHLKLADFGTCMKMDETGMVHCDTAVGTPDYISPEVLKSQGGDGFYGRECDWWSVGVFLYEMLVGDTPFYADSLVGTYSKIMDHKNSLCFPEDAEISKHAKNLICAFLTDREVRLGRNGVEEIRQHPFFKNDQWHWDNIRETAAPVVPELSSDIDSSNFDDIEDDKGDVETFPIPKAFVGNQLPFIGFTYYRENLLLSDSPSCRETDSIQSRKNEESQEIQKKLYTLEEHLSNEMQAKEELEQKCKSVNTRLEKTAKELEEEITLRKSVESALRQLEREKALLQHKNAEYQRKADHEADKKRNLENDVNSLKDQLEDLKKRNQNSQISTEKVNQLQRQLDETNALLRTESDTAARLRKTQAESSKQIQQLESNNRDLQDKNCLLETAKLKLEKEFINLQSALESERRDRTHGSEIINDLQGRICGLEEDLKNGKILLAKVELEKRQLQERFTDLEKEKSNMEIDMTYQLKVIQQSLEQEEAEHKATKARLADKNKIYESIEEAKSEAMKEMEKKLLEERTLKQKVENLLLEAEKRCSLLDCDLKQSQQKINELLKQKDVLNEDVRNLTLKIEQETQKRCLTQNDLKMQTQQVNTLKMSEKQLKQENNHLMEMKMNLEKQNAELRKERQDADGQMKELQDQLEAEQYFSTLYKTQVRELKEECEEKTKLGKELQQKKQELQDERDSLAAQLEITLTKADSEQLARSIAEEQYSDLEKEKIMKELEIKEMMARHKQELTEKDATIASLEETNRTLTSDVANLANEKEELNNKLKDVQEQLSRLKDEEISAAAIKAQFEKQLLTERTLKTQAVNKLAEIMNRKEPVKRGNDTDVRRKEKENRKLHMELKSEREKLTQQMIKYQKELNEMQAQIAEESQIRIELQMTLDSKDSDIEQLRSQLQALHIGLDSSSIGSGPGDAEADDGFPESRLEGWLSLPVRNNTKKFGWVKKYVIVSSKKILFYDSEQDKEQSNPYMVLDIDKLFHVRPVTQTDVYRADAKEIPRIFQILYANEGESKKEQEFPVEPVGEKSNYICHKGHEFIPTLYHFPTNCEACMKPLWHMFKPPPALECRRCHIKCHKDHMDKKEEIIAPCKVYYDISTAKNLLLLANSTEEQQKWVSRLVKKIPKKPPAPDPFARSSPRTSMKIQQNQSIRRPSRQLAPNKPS
Procedure: as §1

in vitro = format: cell-based
PKCh = PKCh (Homo sapiens (Human), UniProt P24723); experiment: Kinase assay PKCh; format: biochemical; settings: HCl salt
Sequence of PKCh (P24723 whole entry): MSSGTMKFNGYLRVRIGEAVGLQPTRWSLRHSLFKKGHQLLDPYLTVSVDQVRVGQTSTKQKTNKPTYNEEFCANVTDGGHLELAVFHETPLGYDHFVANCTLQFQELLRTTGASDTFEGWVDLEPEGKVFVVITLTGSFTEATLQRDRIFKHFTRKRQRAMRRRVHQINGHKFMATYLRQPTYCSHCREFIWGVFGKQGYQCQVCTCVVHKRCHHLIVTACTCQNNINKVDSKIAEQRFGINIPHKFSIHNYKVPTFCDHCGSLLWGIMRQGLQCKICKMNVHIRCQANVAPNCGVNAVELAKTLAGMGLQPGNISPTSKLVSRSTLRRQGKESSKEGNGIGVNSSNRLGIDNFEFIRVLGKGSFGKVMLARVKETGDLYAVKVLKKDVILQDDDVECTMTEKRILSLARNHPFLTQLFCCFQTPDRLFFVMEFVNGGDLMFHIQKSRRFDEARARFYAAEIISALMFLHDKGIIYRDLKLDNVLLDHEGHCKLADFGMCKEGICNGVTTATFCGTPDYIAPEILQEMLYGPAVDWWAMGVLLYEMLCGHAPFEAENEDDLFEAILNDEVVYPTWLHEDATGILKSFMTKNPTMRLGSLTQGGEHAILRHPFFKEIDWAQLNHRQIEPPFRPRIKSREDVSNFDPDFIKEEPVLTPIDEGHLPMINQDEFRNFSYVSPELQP
Procedure: as §1

ROCK1 = ROCK1 (Homo sapiens (Human), UniProt Q13464); experiment: Kinase assay ROCK1; format: biochemical; settings: HCl salt
Sequence of ROCK1 (Q13464 whole entry, species assumed): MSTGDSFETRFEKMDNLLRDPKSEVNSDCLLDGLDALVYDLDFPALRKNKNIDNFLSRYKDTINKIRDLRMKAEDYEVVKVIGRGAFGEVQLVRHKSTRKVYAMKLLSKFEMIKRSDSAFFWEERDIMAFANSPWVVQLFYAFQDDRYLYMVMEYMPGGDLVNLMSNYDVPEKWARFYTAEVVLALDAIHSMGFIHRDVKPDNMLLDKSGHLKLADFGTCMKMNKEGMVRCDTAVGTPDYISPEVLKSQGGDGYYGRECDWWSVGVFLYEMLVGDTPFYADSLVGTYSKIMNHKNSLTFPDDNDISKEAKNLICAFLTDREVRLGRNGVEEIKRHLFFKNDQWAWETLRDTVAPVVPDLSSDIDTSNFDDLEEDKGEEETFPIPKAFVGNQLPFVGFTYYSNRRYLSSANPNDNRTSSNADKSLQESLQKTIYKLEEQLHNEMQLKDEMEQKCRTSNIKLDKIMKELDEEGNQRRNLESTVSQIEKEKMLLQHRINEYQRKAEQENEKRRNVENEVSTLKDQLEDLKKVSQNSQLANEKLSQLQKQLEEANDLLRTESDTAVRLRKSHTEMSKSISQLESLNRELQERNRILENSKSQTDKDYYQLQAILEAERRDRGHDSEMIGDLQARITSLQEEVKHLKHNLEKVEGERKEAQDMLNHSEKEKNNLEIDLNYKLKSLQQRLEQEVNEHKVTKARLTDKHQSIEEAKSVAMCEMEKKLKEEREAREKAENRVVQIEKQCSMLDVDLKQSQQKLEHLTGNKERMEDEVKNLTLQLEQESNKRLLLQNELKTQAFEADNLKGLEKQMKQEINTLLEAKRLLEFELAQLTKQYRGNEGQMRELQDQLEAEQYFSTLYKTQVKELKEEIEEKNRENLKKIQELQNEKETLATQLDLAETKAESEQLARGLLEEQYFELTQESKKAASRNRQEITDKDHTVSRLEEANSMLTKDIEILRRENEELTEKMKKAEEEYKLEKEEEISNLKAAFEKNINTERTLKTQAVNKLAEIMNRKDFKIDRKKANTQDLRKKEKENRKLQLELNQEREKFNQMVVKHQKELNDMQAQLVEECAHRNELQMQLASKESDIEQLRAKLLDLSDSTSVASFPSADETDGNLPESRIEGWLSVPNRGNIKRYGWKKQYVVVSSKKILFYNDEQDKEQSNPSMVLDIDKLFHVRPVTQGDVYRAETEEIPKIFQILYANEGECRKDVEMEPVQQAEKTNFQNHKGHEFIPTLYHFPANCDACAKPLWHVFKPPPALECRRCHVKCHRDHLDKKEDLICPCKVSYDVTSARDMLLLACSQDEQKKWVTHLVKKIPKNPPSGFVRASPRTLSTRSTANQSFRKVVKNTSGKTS
Procedure: as §1

JAK2 = JAK2 (Homo sapiens (Human), UniProt O60674); experiment: Kinase assay JAK2; format: biochemical; settings: HCl salt

Structure (SMILES)	IC50 (HTM)	IC50 (PKCd)	effect on myeloperoxidase activity in aqueous humor ([1]; aqueous humor 24 hours, FIG. 5)	effect on myeloperoxidase activity in vitreous humor ([1]; vitreous humor 24 hours, FIG. 6)	IC50 (PTM)	IC50 (IKKb)	IC50 (JAK3)	IC50 (TYK2)	IC50 (JAK1)	IC50 (PKCe)	IC50 (AKT1)	IC50 (PKA)	IC50 (NFkB)	IC50 (ROCK2)	IC50 (in vitro)	IC50 (PKCh)	IC50 (ROCK1)	IC50 (JAK2)
CC1(C)O[C@@H]2C[C@H]3[C@@H]4CCC5=CC(=O)C=C[C@]5(C)[C@@]4(F)[C@@H](O)C[C@]3(C)[C@]2(C(=O)COC(=O)CCC(=O)OCc2ccc([C@@H](CN)C(=O)Nc3ccc4cnccc4c3)cc2)O1 [Example 33]	4 nM	142 nM	inhibiting effect	inhibiting effect	75 nM	40100 nM	30100 nM	50000 nM	50000 nM	1580 nM	1240 nM	81 nM	103 nM	14 nM	55200 nM	145 nM	21 nM	42400 nM
C[C@@H]1C[C@H]2[C@@H]3CCC4=CC(=O)C=C[C@]4(C)[C@@]3(F)[C@@H](O)C[C@]2(C)[C@@]1(O)C(=O)COC(=O)C[C@H](N)C(=O)OCc1ccc([C@@H](CN)C(=O)Nc2ccc3cnccc3c2)cc1 [Example 83, 1-(4-((S)-3-amino-1-(isoquinolin-6-ylamino)-1-oxopropan-2-yl)benzyl) 4-(2-((8S,9R,10S,11S,13S,14S,16R,17R)-9-fluoro-11,17-dihydroxy-10,13,16-trimethyl-3-oxo-6,7,8,9,10,11,12,13,14,15,16,17-dodecahydro-3H-cyclopenta[a]phenanthren-17-yl)-2-oxoethyl) L-aspartate trihydrochloride]	25 nM	56 nM	–	–	43 nM	19200 nM	7730 nM	50000 nM	34700 nM	154 nM	95 nM	29 nM	55 nM	9 nM	100000 nM	51 nM	11 nM	22000 nM
